Values of other authors in US20250120985A1, “METHOD OF TREATING DIABETIC MACULAR EDEMA” (Oculis Operations Sàrl, priority 2023, published 2025).
≈ marks a conversion by molar mass, not a printed value.

Conditions: 25° C.

| Compound | solubility in pure water [mg/mL] |
| --- | --- |
| OC[C@H]1O[C@@H]2O[C@H]3[C@H](O)[C@@H](O)[C@@H](O[C@H]4[C@H](O)[C@@H](O)[C@@H](O[C@H]5[C@H](O)[C@@H](O)[C@@H](O[C@H]6[C@H](O)[C@@H](O)[C@@H](O[C@H]7[C@H](O)[C@@H](O)[C@@H](O[C@H]8[C@H](O)[C@@H](O)[C@@H](O[C@H]9[C@H](O)[C@@H](O)[C@@H](O[C@H]1[C@H](O)[C@H]2O)O[C@@H]9CO)O[C@@H]8CO)O[C@@H]7CO)O[C@@H]6CO)O[C@@H]5CO)O[C@@H]4CO)O[C@@H]3CO [γ-cyclodextrin] | 249.2 ± 0.2 (≈ 192 mM) |
| OC[C@H]1O[C@@H]2O[C@H]3[C@H](O)[C@@H](O)[C@@H](O[C@H]4[C@H](O)[C@@H](O)[C@@H](O[C@H]5[C@H](O)[C@@H](O)[C@@H](O[C@H]6[C@H](O)[C@@H](O)[C@@H](O[C@H]7[C@H](O)[C@@H](O)[C@@H](O[C@H]1[C@H](O)[C@H]2O)O[C@@H]7CO)O[C@@H]6CO)O[C@@H]5CO)O[C@@H]4CO)O[C@@H]3CO [α-cyclodextrin] | 129.5 ± 0.7 (≈ 133 mM) |
